The results in this text go back to US11648310B2, “Combination of anti-FGFR4-antibody and bile acid sequestrant” (Daiichi Sankyo Europe GmbH, priority 2015, dated 2023).

In data set [1] the test system is cynomolgus monkeys. The note with it: cynomolgus monkey, in vivo. From the text:
In order to find ort whether any toxic side effects of FGFR4 inhibition are due to elevated bile acid levels, the effect of co-administering agents which interfere with bile acid levels was examined. […] For reducing bile acid levels, the bile acid sequestrant colestyramine (Quantalan™) was used. Ursodeoxycholic acid (Ursofalk™) was used as a second compound for increasing the transport of bile acids out of the liver. Ursodeoxycholic acid is a hydrophilic bile acid that increases bile acid transporter expression and plasma membrane translocation in the liver, (palliative compounds 1 and 2).
The study design included four cynomolgus monkeys (two male, two female) per group. The animals were assigned to the following groups
Duration and frequency: three administrations at 7-day interval (i.e. day 0, day 7 and day 14). The first day of dosing was designated as day 0. […]
The test animals were examined for clinical signs, liver enzymes, bile acid levels and FGF19. FGF19 serum levels were determined using quantiquine human FGF19 ELISA from RND according to the manufacturer's instructions. RNA expression of cyno liver and ileum samples for Cyp7A1 (liver) and FGF19 (Ileum) were determined using the High-Capacity RNA-to-cDNA Kit (Applied Biosystems/Life Technologies) followed by subsequent quantitative real-time PCR. […]

Data set [2] concerns cynomolgus monkeys. The note with it: cynomolgus monkey, in vivo. An excerpt: In order to find ort whether any toxic side effects of FGFR4 inhibition are due to elevated bile acid levels, the effect of co-administering agents which interfere with bile acid levels was examined. […] For reducing bile acid levels, the bile acid sequestrant colestyramine (Quantalan™) was used. Ursodeoxycholic acid (Ursofalk™) was used as a second compound for increasing the transport of bile acids out of the liver. Ursodeoxycholic acid is a hydrophilic bile acid that increases bile acid transporter expression and plasma membrane translocation in the liver, (palliative compounds 1 and 2). The study design included four cynomolgus monkeys (two male, two female) per group. The animals were assigned to the following groups [table] […] Duration and frequency: three administrations at 7-day interval (i.e. day 0, day 7 and day 14). The first day of dosing was designated as day 0. After the last administration, the animals were kept for a treatment-free period of at east 28 days. Method: intravenous injection (slow bolus) using a pump system and a microflex infusion set introduced into a vein after local disinfection with an aqueous solution of ethyl alcohol. After injection, the vein was flushed with sterile physiological saline. Volume administered: 9.52 mL/kg/day. Individual dose volumes were calculated using the latest body weight. Palliative Compounds and Vehicle Route: oral. Frequency: twice daily at 8 hours±1 hour apart. Duration: each day from day 0 to the last day of treatment-free period, i.e. at least 41 days of administrations. Method: naso-gastric intubation (animals are trained to this administration rotate five days before the start of treatment). […] Individual dose volumes were calculated using the latest body weight. […] FGF19 serum levels were determined using quantiquine human FGF19 ELISA from RND according to the manufacturer's instructions. RNA expression of cyno liver and ileum samples for Cyp7A1 (liver) and FGF19 (Ileum) were determined using the High-Capacity RNA-to-cDNA Kit (Applied Biosystems/Life Technologies) followed by subsequent quantitative real-time PCR.
This is another data set of the same source.

In the case of “colestyramine [Quantalan™, reference compound]”, the Histopathological changes entry in the data set with cynomolgus monkeys [1] was “no histopathological changes”. In the data set with cynomolgus monkeys [2], the Alanine aminotransferase activity result is recorded as “within the normal range”, the Bile acid concentration result was “within the normal range” and the “Reversibility of the aspartate aminotransferase effect” value is reported as “reversible”.
